From article PMC5078989, “Targeted inhibition of the COP9 signalosome for treatment of cancer” (Nature Communications, 2016)

Test system: panel of cancer cell lines
Assay: Cell viability (CellTiter-Glo) dose-response across cancer cell line panel;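 also: after 72 h compound incubation with CellTiter-Glo ATP readout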
Type: cell-based, human
Conditions: Homo sapiens
Outline: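 Dose–response viability screen of a CSN5 inhibitor in over 500 cancer lines. Compound exposure lasted 72 h at 37 °C and 5% CO2, starting 4 h post-seeding. ATP luminescence (CellTiter-Glo) was read, and EC50 was obtained by nonlinear regression of percent inhibition.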

SMILES: NS(=O)(=O)OC[C@@H]1C[C@@H](n2ccc3c(N[C@H]4CCc5ccccc54)ncnc32)C[C@@H]1O [MLN4924]
- EC50 (HEC-251, HEC-251): 8160 nM
- EC50 (HEC-265): 20000 nM
- EC50 (HEL): 190 nM
- EC50 (HEL 92.1.7, HEL 92.1.7): 94.8 nM
- EC50 (HEY A8, Hey-A8): 114 nM
- EC50 (HL-60, HL-60): 361 nM
- EC50 (HLC-1): 981 nM
- EC50 (HLE): 454 nM
- EC50 (HLF): 739 nM
- EC50 (HMC-1-8): 154 nM
- EC50 (HPAC): 830 nM
- EC50 (HPBALL, HPB-ALL): 333 nM
- EC50 (HRT-18, HRT-18): 1860 nM
- EC50 (HSC-2, HSC-2): 146 nM
- EC50 (HSC-3, HSC-3): 292 nM
- EC50 (HSC-4, HSC-4): 268 nM
- EC50 (HT-29, HT-29): 2230 nM
- EC50 (HT-1080, HT-1080): 215 nM
- EC50 (Hep3B): 2560 nM
- EC50 (Hep 3B2.1-7): 4280 nM
- EC50 (Hs 294T): 1860 nM
- EC50 (Hs 695T): 719 nM
- EC50 (Hs766T, Hs 766T): 18800 nM
- EC50 (Hs 852.T): 804 nM
- EC50 (Hs 936.T): 202 nM
- EC50 (Hs 939.T): 600 nM
- EC50 (Hs 944.T): 898 nM
- EC50 (HuH-6, HuH-6): 4960 nM
- EC50 (HuP-T4, HUP-T4): 360 nM
- EC50 (Huh-7, HuH-7): 723 nM
- EC50 (IGR-37, IGR-37): 613 nM
- EC50 (IGR-39, IGR-39): 545 nM
- EC50 (IGROV-1, IGROV1): 399 nM
- EC50 (IPC-298, IPC-298): 716 nM
- EC50 (IST-MES2): 421 nM
- EC50 (Ishikawa): 213 nM
- EC50 (J82, J82): 1650 nM
- EC50 (JHH7, JHH-7): 12200 nM
- EC50 (JHH-4, JHH-4): 594 nM
- EC50 (JHOM-1): 1300 nM
- EC50 (JHOS-2): 274 nM
- EC50 (JHUEM-2): 952 nM
- EC50 (JHUEM-3): > 30000 nM
- EC50 (JIMT-1, JIMT-1): 8670 nM
- EC50 (JL-1): 2290 nM
- EC50 (JU77): 304 nM
- EC50 (JVM-2, JVM-2): 83.5 nM
- EC50 (K029AX): 1740 nM
- EC50 (KARPAS-422, KARPAS-422): 654 nM
- EC50 (KATO III): 711 nM
- EC50 (KBM-7, KBM-7): 106 nM
- EC50 (KCI-MOH1): 2000 nM
- EC50 (KE-97, KE-97): 210 nM
- EC50 (KLE): 897 nM
- EC50 (KM12, KM12): 1570 nM
- EC50 (KMM-1, KMM-1): 462 nM
- EC50 (KMRC-1, KMRC-1): 435 nM
- EC50 (KMRC-20): 1520 nM
- EC50 (KMS-11, KMS-11): 426 nM
- EC50 (KNS-42, KNS-42): 282 nM
- EC50 (KNS-60): 486 nM
- EC50 (KNS-62, KNS-62): 398 nM
- EC50 (KP-1N): 15600 nM
- EC50 (KP-1NL): 13600 nM
- EC50 (KP-2): 4050 nM
- EC50 (KP-4, KP4): 828 nM
- EC50 (KS-1): 336 nM
- EC50 (KU-19-19, KU-19-19): 922 nM
- EC50 (KURAMOCHI): 1250 nM
- EC50 (KYSE-30, KYSE-30): 356 nM
- EC50 (KYSE-70, KYSE-70): 1060 nM
- EC50 (KYSE-150, KYSE-150): 725 nM
- EC50 (KYSE-180, KYSE-180): 1290 nM
- EC50 (Kasumi-3, Kasumi3): 292 nM
- EC50 (Kasumi-6): 286 nM
- EC50 (L3.3): 120 nM
- EC50 (L-363, L-363): 139 nM
- EC50 (L-428, L-428): 3080 nM
- EC50 (LC-1/sq-SF): 926 nM
- EC50 (LC-1F): 586 nM
- EC50 (LC-2-ad, LC2/ad): 540 nM
- EC50 (LCLC-103H): 573 nM
- EC50 (LIM1899): 2310 nM
- EC50 (LIM2099): 440 nM
- EC50 (LIM2405): 305 nM
- EC50 (LIM2550): 53.5 nM
- EC50 (LMSU): 100 nM
- EC50 (LN-18, LN-18): 178 nM
- EC50 (LO68): 3750 nM
- EC50 (LOU-NH91, LOU-NH91): 296 nM
- EC50 (LOX IMVI): 262 nM
- EC50 (LP-1, LP-1): 536 nM
- EC50 (LS180, LS 180): 175 nM
- EC50 (LUDLU-1, LUDLU-1): 2510 nM
- EC50 (Li-7, Li-7): 827 nM
- EC50 (Lu-65, LU65): 922 nM
- EC50 (Lu-99, LU99): 98.5 nM
- EC50 (M-07e): 1020 nM
- EC50 (MCAS): 529 nM
- EC50 (MCC13): 4250 nM
- EC50 (MCC14/2): 36.1 nM
- EC50 (MCC26): 652 nM
- EC50 (MDA-MB-134-VI): 678 nM
- EC50 (MDA-MB-157, MDA-MB-157): 8450 nM
- EC50 (MDA-MB-175-VII): 448 nM
- EC50 (MDA-MB-231, MDA-MB-231): 422 nM
- EC50 (MDA-MB-415, MDA-MB-415): > 30000 nM
- EC50 (MDA-MB-435S): 3550 nM
- EC50 (MDA-MB-436, MDA-MB-436): 1430 nM
- EC50 (MDA-MB-453, MDA-MB-453): 106 nM
- EC50 (MDA-MB-468, MDA-MB-468): 396 nM
- EC50 (MDST8, MDST8): 311 nM
- EC50 (ME-180, ME180): 177 nM
- EC50 (MEC1, MEC-1): 302 nM
- EC50 (MEL-HO): 873 nM
- EC50 (MEL-JUSO): 364 nM
- EC50 (MES-SA): 932 nM
- EC50 (MFE-280, MFE-280): 364 nM
- EC50 (MFE-296, MFE-296): 109 nM
- EC50 (MFE-319): 3660 nM
- EC50 (MFM-223, MFM223): 105 nM
- EC50 (MG-63, MG-63): 261 nM
- EC50 (MIA PaCa-2, MIA PaCa-2): 518 nM
- EC50 (MINO): 13.1 nM
- EC50 (MKN-1, MKN1): 1020 nM
- EC50 (MKN-45, MKN-45): 363 nM
- EC50 (ML-2, ML-2): 57.1 nM
- EC50 (MM127): 325 nM
- EC50 (MM138): 251 nM
- EC50 (MM170): 334 nM
- EC50 (MM253): 35.5 nM
- EC50 (MM370): 273 nM
- EC50 (MM383): 281 nM
- EC50 (MM386): 950 nM
- EC50 (MM415): 675 nM
- EC50 (MM426): 754 nM
- EC50 (MM466): 2560 nM
- EC50 (MM473, MM473): 589 nM
- EC50 (MM485): 820 nM
- EC50 (MM537): 84.6 nM
- EC50 (MM576): 511 nM
- EC50 (MM603): 415 nM
- EC50 (MOG-G-CCM): 2350 nM
- EC50 (MOLM-13, MOLM-13): 46.3 nM
- EC50 (MOLP-8, MOLP-8): 132 nM
